The source of these data is patent US20100249419A1, “UTILIZATION OF NOVEL COMPOUNDS WITH AMYLOID AFFINITY AND METHOD OF PRODUCING THE SAME” (NIHON MEDI-PHYSICS CO., LTD., priority 2007, published 2010).

Some results are limits rather than exact numbers.

A word on the IC50: it is the concentration that inhibits the measured activity by half. A lower IC50 goes with greater potency.

Data set [1] is described as follows: Partition coefficient based on the octanol extraction method. It is filed as physicochemical. The settings on record: octanol / 10 mmol/L phosphate buffer (pH 7.4); Table 6, Examples 20-21. How it is done:
Partition coefficients based on the octanol extraction method (hereinafter referred to as log Poctanol) were measured, which are generally known as an indicator of permeability of compounds through the blood-brain barrier (hereinafter referred to as BBB).
A diethyl ether solution of Compound 1 prepared in Example 3 (Example 8), a diethyl ether solution of Compound 2 prepared in Example 6 (Example 9), and a diethyl ether solution of [^123I]-IMPY prepared in Reference Example 1 (Comparative Example 4) were each diluted with 10 mg/mL ascorbic acid-containing physiological saline solution, and adjusted to a radioactive concentration of 20-30 MBq/mL. To 2 mL of octanol, 10 μL each of the prepared sample solutions was added, 2 mL of 10 mmol/L phosphate buffer (pH 7.4) was added, followed by stirring for 30 seconds. After the mixture was centrifuged with a low-speed centrifuge (2000 rpm×60 min.), the octanol layer and the water layer were sampled each in an amount of 1 mL, and subjected to measurement of radioactivity count with an autowell gamma system (Type: ARC-301B, manufactured by Aloka). Using the obtained radioactivity count, log Poctanol was calculated in accordance with the equation (2).
A diethyl ether solution (Example 20) of Compound 4 prepared in Example 16, a diethyl ether solution (Example 21) of Compound 6 prepared in Example 19, and a diethyl ether solution (Comparative Example 7) of [^123I]-IMPY were each diluted with a 10 mg/mL ascorbic acid-containing physiological saline solution to adjust to a radioactive concentration of 20-30 MBq/mL. To 2 mL of octanol, 10 μL each of the prepared sample solution was added, and 2 mL of 10 mmol/L phosphate buffer (pH 7.4) was further added, followed by stirring for 30 seconds. After the mixture was centrifuged with a low-speed centrifuge (2000 rpm×60 min.), the octanol layer and the water layer were sampled each in an amount of 1 mL, and subjected to measurement of radioactivity count with an autowell gamma system (Type: ARC-301B, manufactured by Aloka). Using the obtained radioactivity count, logPoctanol was calculated in accordance with the equation (4).

Data set [2] deals with T1, aggregated Aβ (Aβ1-42) injected into amygdaloid nucleus (Homo sapiens, UniProt P05067).
T1 construct: Aβ1-42 (manufactured by Wako) was dissolved in phosphate buffer (pH 7.4); purchased Wako
The data set can be described thus: Confirmation of imaging of amyloid in brain (ex vivo autoradiogram, Aβ1-42). Also on record: species or system male Wistar rat. The following applies: brain slice 60 minutes after tail vein injection. On the procedure:
The following experiment was carried out in order to examine whether amyloid in brain can be imaged by the compound of the present invention.
(1) Aβ1-42 (manufactured by Wako) was dissolved in phosphate buffer (pH 7.4) and shaken at 37° C. for 72 hours, to obtain a 1 mg/mL suspension of aggregated Aβ (hereinafter referred to as amyloid suspension in the Examples).
(2) 2.5 μL (corresponding to […]) of the amyloid suspension was injected into an amygdaloid nucleus on one side of a male Wistar rat (7-week old). As a control, 2.5 μL of a phosphate buffered physiological saline solution (pH 7.4) was injected into an amygdaloid nucleus on the other side of the rat. The rats were examined 1 day after the injection of the amyloid suspension and the phosphate buffered physiological saline solution (pH 7.4).
(3) Compound 1 was dissolved in a 10 mg/mL ascorbic acid-containing physiological saline solution to obtain a sample solution (22 MBq/mL in radioactivity concentration in the sample solution). This solution was injected under thiopental anesthesia into the rat through the tail vein (dosage: 0.5 mL, dosed radioactivity: 11-13 MBq equivalent).
(4) Brain was removed 60 minutes after the injection to prepare a brain slice of 10 μm in thickness with a microtome (type: CM3050S, manufactured by LEICA). The brain slice was exposed to an imaging plate for 20 hours, and then image analysis was carried out by use of a Bio-imaging Analyzer (type: BAS-2500; manufactured by FUJIFILM Corporation).
(5) After the completion of the image analysis using the Bio-imaging Analyzer, […]
Thus, it was confirmed that amyloid was deposited on the slice (FIG. 6b).
The same procedures as in Example 12 were performed except using a solution of Compound 2 in a 10 mg/mL ascorbic acid as a sample solution (the radioactive concentration of the sample solution was 25 MBq/mL).
(1) Aβ1-42 (manufactured by Wako) was dissolved in phosphate buffer (pH 7.4) and shaken at 37° C. for 72 hours, to obtain 1 mg/mL of a suspension of aggregated Aβ (hereinafter referred to as amyloid suspension in the Examples).
(3) A sample solution (30 MBq/mL in radioactivity concentration, Example 24) in which Compound 4 was dissolved in a 10 mg/mL ascorbic acid-containing physiological saline solution and a sample solution (30 MBq/mL in radioactivity concentration, Example 25) in which Compound 6 was dissolved in a 10 mg/mL ascorbic acid-containing physiological saline solution were prepared. This solution was injected under thiopental anesthesia into the rat through the tail vein (dosage: 0.5 mL, dosed radioactivity: 11-15 MBq equivalent).
Thus, it was confirmed that amyloid was deposited on the slice (FIG. 12 and FIG. 13).

The nature of data set [3]: Transferability into brain and clearance. It counts as in vivo, male Wistar rats. The following applies: intravenous injection, rats, Table 7. On the procedure:
Using Compound 1 (Example 10) and Compound 2 (Example 11), a time course change of radioactive accumulation in brain of male Wistar rats (7-week old) was measured.
A diethyl ether solution of Compound 1 (Example 10) prepared in Example 3, a diethyl ether solution of Compound 2 (Example 11) prepared in Example 6 and a diethyl ether solution of [^123I]-IMPY (Comparative Example 5) prepared in Reference Example 1 were each diluted with 10 mg/mL ascorbic acid-containing physiological saline solution to adjust to a radioactive concentration of 8-12 MBq/mL. 0.05 mL each of the prepared sample solutions was injected under thiopental anesthesia into the tail vein of the rats. The rats were sacrificed by bleeding from abdominal artery, and brains were removed and subjected to measurement of mass of brains and further subjected to measurement of radioactivity (hereinafter referred to as A in this Example) with a single channel analyzer (detector type: SP-20 manufactured by OHYO KOKEN KOGYO Co., Ltd.) 2, 5, 30 and 60 minutes after the injection. Further, the radioactivity level of the rest of the whole body was measured in the same manner as above (hereinafter referred to as B in this Example). Using these measurement results, radioactive distribution per unit weight of brain (% ID/g) at the respective time points were calculated in accordance with the following formula (3).
Three animals were used for the experiment at the respective time points.
Using Compound 4 and Compound 6, a time course change of radioactive accumulation in brain of male Wistar rats (7-week old) was measured.
Compound 4 (Example 22), Compound 6 (Example 23) and a solution of [^123I]-IMPY (Comparative Example 8) prepared above in Reference Example 1 were each diluted with a 10 mg/mL ascorbic acid-containing physiological saline solution to prepare solutions (20-31 MBq/mL in radioactive concentration). 0.05 mL each of the prepared sample solutions was injected under thiopental anesthesia into the tail vein of the respective Wistar rat (7-week old). The rats were sacrificed by bleeding from abdominal artery, and brains were removed and subjected to measurement of mass of brains and further subjected to measurement of radioactivity (hereinafter referred to as A in this Example) with a single channel analyzer (detector type: SP-20 manufactured by OHYO KOKEN KOGYO Co., Ltd.) 2, 5, 30 and 60 minutes after the injection. Further, the radioactivity level of the rest of the whole body was measured in the same manner as above (hereinafter referred to as B in this Example). Using these measurement results, radioactive distribution per unit weight of brain (% ID/g) at the respective time points were calculated in accordance with the following formula (5).

The subject of data set [4] is Salmonella typhimurium TA98. Put plainly: Reverse mutation test (Ames test), TA98. It is filed as cell-based. On the procedure:
(§1) In order to examine gene mutagenicity of Compounds 3, 5 and 8, reverse mutation test using Salmonella typhimurium TA98 and TA100 (hereinafter referred to as Ames test) was conducted.
(§2) The test was conducted without addition of S9mix and with addition of S9mix. Dimethylsulfoxide (hereinafter referred to as DMSO) was used as a negative control. A positive control was 2-(2-furyl)-3-(5-nitro-2-furyl)acrylamide (hereinafter referred to as AF-2) in case S9mix was not added, and 2-aminoanthracene (hereinafter referred to as 2-AA) in case S9mix was added.
(§3) As a sample solution to be added to a test plate, each compound was dissolved in DMSO to prepare a solution at a concentration of 50 mg/mL, and further, each solution was diluted with DMSO to prepare a solution with 7 dosage (geometric ratio 3). As a sample solution for preparing a sample of positive control, when TA98 was used as a test strain without addition of S9mix, a solution of AF-2 (compound concentration: 1 μg/mL) in DMSO was prepared; when TA100 was used as a test strain without addition of S9mix, a solution of AF-2 (compound concentration: 0.1 μg/mL) in DMSO was prepared; when TA98 was used as a test strain with addition of S9mix, a solution of 2-AA (compound concentration: 5 μg/mL) in DMSO was prepared; and when TA100 was used as a test strain with addition of S9mix, a solution of 2-AA (compound concentration: 10 μg/mL) in DMSO was prepared.
(§4) After each sample solution to be examined and a test strain (TA98 or TA100) were mixed together so as to make the addition amount of each sample to be 0.1 mL/plate, the mixture was multilayered using soft agar on a medium of a test plate, and then incubated at 37° C. for 48 hours. Separately, after each sample solution to be examined, S9mix and a test strain were mixed together so as to make the addition amount of each sample to be 0.1 mL/plate, the mixture was multilayered using soft agar on a medium of a test plate, and then incubated at 37° C. for 48 hours. On the other hand, only DMSO was used as a sample solution to perform the same procedure as above for the negative control. […]

Data set [5] has as its system Salmonella typhimurium TA100. The data set can be described thus: Reverse mutation test (Ames test), TA100. It counts as cell-based. How it is done:
as §1, §2, §3, §4
For orientation: The Ames test detects mutagens through reverse mutation in bacteria.

Data set [6] concerns the target T2, aggregated Aβ (Aβ1-42) amyloid (Homo sapiens, UniProt P05067).
T2 construct: Aβ1-42 (manufactured by Wako) was dissolved in phosphate buffer (pH 7.4); purchased Wako
Put plainly: In vitro binding test: inhibition of [^125I]3′-I-BTA-0 binding to amyloid. The settings on record: [^125I]3′-I-BTA-0 400 pmol/L, amyloid 1 μmol/L, 22° C., 3 hours. How it is done: Affinity of the present compounds with amyloid was examined by the following in vitro binding tests.
The measured radioactivity level was defined as the background radioactivity level, and used in the calculation of the inhibition ratio (hereinafter referred to as BG).
(9) Using the radioactivity levels measured above in (7) and (8), the inhibition ratio was determined by the following formula (1).
A graph in which values converted by probit transformation from the obtained inhibition ratios were plotted relative to logarithms of concentrations of compounds for evaluation was prepared to obtain an approximate straight line by the least square method.

For data set [7] the following is noted: [^125I]-labeled compounds, normal mice; cited from earlier work.
[8] abbreviates: TA98, without addition of S9mix.
[9] abbreviates: TA100, without addition of S9mix.

T2 sequence (P05067 672-713): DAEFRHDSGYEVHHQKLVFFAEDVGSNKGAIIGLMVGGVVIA
T1 sequence (P05067 672-713): as above

Consider “2-[3′-(2″-hydroxyethoxy)phenyl]-6-[^123I]iodoimidazo[1,2-a]pyridine [Compound 4]”, for which, in data set [1], the logPoctanol value worked out at 2.5. The “Accumulation of radioactivity in amygdaloid nucleus on the amyloid-injected side” value in data set [2] is “marked accumulation of radioactivity”. Further, the “Radioactive distribution per unit weight of brain” value was found to be 0.56 % ID/g in data set [3] (After 2 min.), 0.28 % ID/g in data set [3] (After 5 min.), 0.04 % ID/g in data set [3] (After 30 min.) and 0.01 % ID/g in data set [3] (After 60 min.).
Regarding `OCCOc1cccc(-c2cn3cc(I)ccc3n2)c1` [Compound 5, 2-[3′-(2″-hydroxyethoxy)phenyl]-6-iodoimidazo[1,2-a]pyridine], the Mutagenicity entry in data set [4] (TA98, with addition of S9mix) is “Negative”; in data set [4] (setting [8]), “Negative”; in data set [5] (TA100, with addition of S9mix) it was “Negative”; in data set [5] (setting [9]), “Negative”.
`CCOc1ccc(-c2cn3cc(I)ccc3n2)cc1` [Compound 8, 2-(4′-ethoxyphenyl)-6-iodoimidazo[1,2-a]pyridine]: the Mutagenicity entry was “Negative” in data set [4] (TA98, with addition of S9mix); “Negative” in data set [4] (setting [8]); “Negative” in data set [5] (TA100, with addition of S9mix); “Negative” in data set [5] (setting [9]).
Turning to `CCC[CH2][Sn]([CH2]CCC)([CH2]CCC)[c]1ccc2nc(-c3ccc(OCCO)cc3)cn2c1` [Compound 9, 6-tributylstannyl-2-[4′-(2″-hydroxyethoxy)phenyl]imidazo[1,2-a]pyridine], the Mutagenicity result in data set [4] (TA98, with addition of S9mix) is on record as “Negative”; in data set [4] (setting [8]) it was “Negative”; in data set [5] (TA100, with addition of S9mix) it was “Negative”; in data set [5] (setting [9]), “Negative”.
As for `Nc1c(/N=N/c2ccc(-c3ccc(/N=N/c4cc(S(=O)(=O)O)c5ccccc5c4N)cc3)cc2)cc(S(=O)(=O)O)c2ccccc12` [Congo Red, reference compound], the IC50 in data set [6] was above 1000 nM.
`CN(C)c1ccc(-c2nc3ccc(I)cc3o2)cc1` [IBOX, 6-iodo-2-[4′-(N,N-dimethylamino)phenyl]benzoxazole]: in data set [7], the “Clearance from normal tissues” value is “insufficient in clearance from normal tissues”.
Turning to `CN(C)c1ccc(-c2nc3ccc(I)cc3s2)cc1` [TZDM, 6-iodo-2-[4′-(N,N-dimethylamino)phenyl]benzothiazole], in data set [7], the “Clearance from normal tissues” value is “insufficient in clearance from normal tissues”.
As for `CN(C)c1ccc(/C=C/c2ccc(I)cc2)cc1` [m-I-SB, (E)-4-dimethylamino-4′-iodostilbene], in data set [7], the “Clearance from normal tissues” value is on record as “insufficient in clearance from normal tissues”.
